Legend:
Assay type in all cases: biochemical
recombinant human GBA = target: T1, recombinant human GBA (Homo sapiens, UniProt P04062); test: Beta-glucocerebrosidase (GBA) inhibition assay; details: 4-methylumbelliferyl-beta-D-pyranoside substrate, 4-PL curve fit
T1 construct: purchased
T1 sequence (P04062 40-536): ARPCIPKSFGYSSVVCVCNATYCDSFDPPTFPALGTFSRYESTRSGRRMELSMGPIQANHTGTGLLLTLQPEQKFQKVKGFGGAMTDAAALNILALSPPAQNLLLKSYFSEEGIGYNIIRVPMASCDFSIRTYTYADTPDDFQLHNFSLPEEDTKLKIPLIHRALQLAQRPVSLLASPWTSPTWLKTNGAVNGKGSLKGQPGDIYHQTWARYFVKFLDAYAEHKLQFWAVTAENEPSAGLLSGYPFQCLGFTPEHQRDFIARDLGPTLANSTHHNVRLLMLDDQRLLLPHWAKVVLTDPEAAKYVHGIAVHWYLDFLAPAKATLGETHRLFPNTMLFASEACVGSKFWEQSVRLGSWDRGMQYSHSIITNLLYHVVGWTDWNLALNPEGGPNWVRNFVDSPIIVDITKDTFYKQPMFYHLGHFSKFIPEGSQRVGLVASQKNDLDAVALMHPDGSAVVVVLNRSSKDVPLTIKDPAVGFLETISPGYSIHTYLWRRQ
Description: Beta-glucocerebrosidase (GBA, also referred to glucosylceramidase): To analyze inhibitory effects of a test compound, commercially available recombinant human GBA was incubated with multiple dilutions of test compound for 60 minutes at 37° C. 4-methylumbelliferyl-beta-D-pyranoside was then introduced to the mixture as substrate. Following incubation for 60 minutes at 37° C., 1,4-methyllumbelliferone was generated, and the reaction was stopped with the stop solution (0.5 M glycine; 0.3 M NaOH, pH 10). 1,4-methyllumbelliferone was detected by fluorescence (excitation at 365 nm, emission at 440 nm). Relative fluorescence is compared to untreated enzymatic activity and test compound concentration is then plotted as a function of percent inhibition. The IC50 was determined using a 4-PL curve fit as the measure of relative inhibitory activity of each test compound (see Table 4).

rat sucrase = target: T2, rat sucrase (Rattus norvegicus, UniProt P23739); test: Intestinal alpha-glucosidase assay, sucrose substrate; details: alpha-glucosidase from intestinal rat powder
T2 construct: partially purified alpha-glucosidase from intestinal rat powder; from tissue; host or cells: rat intestinal powder
Description: (§1) Intestinal alpha-glucosidases (rat maltase and sucrase): Intestinal alpha-glucosidases act upon 1,4-alpha-glucoside bonds, breaking down disaccharides to glucose. To perform this assay, partially purified alpha-glucosidase from intestinal rat powder was incubated for 60 minutes at 37° C. with multiple dilutions of test compounds. Maltose or Sucrose respectively was then introduced as substrate to the mixture and incubated for 30 minutes at 37° C. The reaction was stopped by a 5-minute incubation at 90° C. and the resultant glucose production is detected using Sigma's Glucose GO Kit. Percent inhibition was then plotted as a function of concentration for each test compound. The IC50 was determined using a 4-PL curve fit and serves as the measure of relative inhibition of each test compound (see Table 4). Table 4 summarizes the results of IC50s for each molecule against each tested glucosidase enzyme.

rat maltase = test: Intestinal alpha-glucosidase assay, maltose substrate; details: alpha-glucosidase from intestinal rat powder
Description: as §1

T2 sequence (P23739 whole entry): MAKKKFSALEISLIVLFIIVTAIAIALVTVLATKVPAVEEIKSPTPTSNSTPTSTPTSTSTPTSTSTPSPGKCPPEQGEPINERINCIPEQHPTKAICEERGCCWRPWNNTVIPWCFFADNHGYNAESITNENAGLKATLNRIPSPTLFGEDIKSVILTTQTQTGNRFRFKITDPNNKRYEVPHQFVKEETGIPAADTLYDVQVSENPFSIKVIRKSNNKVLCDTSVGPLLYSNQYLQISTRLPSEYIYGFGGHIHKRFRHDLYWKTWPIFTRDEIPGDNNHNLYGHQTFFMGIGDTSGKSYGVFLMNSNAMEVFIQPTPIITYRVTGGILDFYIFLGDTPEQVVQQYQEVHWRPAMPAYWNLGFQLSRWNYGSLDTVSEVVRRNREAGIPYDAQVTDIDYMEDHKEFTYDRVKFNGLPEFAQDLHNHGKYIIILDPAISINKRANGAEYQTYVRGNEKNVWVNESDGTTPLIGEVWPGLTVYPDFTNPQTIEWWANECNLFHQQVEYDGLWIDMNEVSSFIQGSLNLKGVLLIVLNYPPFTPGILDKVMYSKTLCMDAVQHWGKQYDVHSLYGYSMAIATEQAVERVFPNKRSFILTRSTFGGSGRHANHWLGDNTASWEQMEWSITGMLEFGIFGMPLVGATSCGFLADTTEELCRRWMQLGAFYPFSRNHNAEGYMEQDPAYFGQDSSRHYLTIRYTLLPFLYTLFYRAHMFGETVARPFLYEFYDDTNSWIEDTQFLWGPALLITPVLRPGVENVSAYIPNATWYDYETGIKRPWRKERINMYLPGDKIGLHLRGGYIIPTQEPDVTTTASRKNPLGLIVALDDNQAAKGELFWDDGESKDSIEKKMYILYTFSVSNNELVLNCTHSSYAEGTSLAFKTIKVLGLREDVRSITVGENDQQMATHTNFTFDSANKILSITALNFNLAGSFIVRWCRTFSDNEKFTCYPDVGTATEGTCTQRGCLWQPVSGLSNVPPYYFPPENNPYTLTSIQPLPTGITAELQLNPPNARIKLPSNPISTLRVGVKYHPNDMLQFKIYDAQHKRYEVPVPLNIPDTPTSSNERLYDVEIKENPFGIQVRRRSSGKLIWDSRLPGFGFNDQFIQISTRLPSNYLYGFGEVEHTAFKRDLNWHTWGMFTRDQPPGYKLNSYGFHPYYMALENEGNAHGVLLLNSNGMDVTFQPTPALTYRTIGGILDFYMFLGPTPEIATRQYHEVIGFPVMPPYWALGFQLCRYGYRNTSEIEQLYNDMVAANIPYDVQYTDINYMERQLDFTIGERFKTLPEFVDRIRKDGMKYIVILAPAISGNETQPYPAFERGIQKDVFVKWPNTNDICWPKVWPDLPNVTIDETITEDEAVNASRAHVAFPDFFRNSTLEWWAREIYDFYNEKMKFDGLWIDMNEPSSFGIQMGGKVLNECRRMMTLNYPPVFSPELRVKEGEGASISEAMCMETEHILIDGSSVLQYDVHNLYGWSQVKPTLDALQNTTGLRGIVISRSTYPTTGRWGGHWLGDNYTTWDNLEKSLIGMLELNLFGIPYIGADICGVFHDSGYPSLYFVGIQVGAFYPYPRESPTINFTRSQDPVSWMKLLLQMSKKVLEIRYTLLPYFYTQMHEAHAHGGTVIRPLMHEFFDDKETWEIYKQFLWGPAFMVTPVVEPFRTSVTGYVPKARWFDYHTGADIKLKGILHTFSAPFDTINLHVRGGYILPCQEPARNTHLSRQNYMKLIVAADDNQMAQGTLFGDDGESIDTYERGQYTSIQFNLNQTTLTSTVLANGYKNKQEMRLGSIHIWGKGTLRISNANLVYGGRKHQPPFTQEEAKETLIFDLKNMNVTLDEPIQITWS

## CCCCN[C@H]1C[C@](O)(CO)[C@@H](O)[C@H](O)[C@H]1O [Compound 1, (1S,2S,3R,4S,5S)-5-(butylamino)-1-(hydroxymethyl)cyclohexane-1,2,3,4-tetraol]
Recombinant human GBA
  IC50: > 1000 µM
Rat sucrase
  IC50: 0.07 µM
Rat maltase
  IC50: 1.47 µM
